Experiment [1] has as its target T1, CDK1 (cyclin dependent kinase 1) / cyclin B (Homo sapiens, UniProt P06493).
T1 construct: purchased New England Biolabs 6020; host or cells: insect cells
The experiment in a line: CDK1 kinase assay. Format: biochemical. As to the method: (§1) The term n.d. means not tested.
Assays to test compound inhibition of other kinases were preformed using methods that measure the amount of phosphorylation of a biotinylated peptide substrate. Biotinylated peptide substrates were selected from the literature as appropriate for the enzyme being evaluated. The general procedure used to assay for kinase activity is as follows: A kinase reaction mix was prepared in 50 mM Tris-HCl pH=8, 10 mM MgCl2, 0.1 mM NaVO4, 1 mM DTT, 5-10 μM ATP, 0.25-1 μM biotinylated peptide substrate, 0.2-0.8 μCuries per well ^33P-γ-ATP [2000-3000 Ci/mmol]. Assay conditions vary slightly for each protein kinase, for example, insulin receptor kinase requires 10 mM MnCl2 for activity and Calmodulin-dependent protein kinase requires calmodulin and 2 mM CaCl2. The reaction mixture was dispensed into the wells of a streptavidin coated Flashplate and 1 μl drug stock in 100% DMSO was added to a 100 μl reaction volume resulting in a final concentration of 1% DMSO in the reaction. Enzyme was diluted in 50 mM Tris-HCl pH=8.0, 0.1% BSA and added to each well. The reaction was incubated for one hour at 30° C. in the presence of compound. After one hour the reaction mix was aspirated from the plate and the plate was washed with PBS containing 100 mM EDTA. The plate was read on a scintillation counter to determine ^33P-γ-ATP incorporated into the immobilized peptide. […] A maximum and minimum signal for the assay was determined on each plate. The IC50 was calculated from the dose response curve of the percent inhibition of the maximum signal in the assay according to the formula [max signal−background/test compound signal−background (100)=% inhibition] by graphing the percent inhibition against the log concentration of test compound. Known inhibitor compounds appropriate for the kinase being assayed were also included on each plate.
VEGF-R (vascular endothelial growth factor receptor-2) is a fusion protein containing a polyhistidine tag at the N-terminus followed by amino acids 786-1343 of the rat VEGF-R2 kinase domain (GenBank Accession #U93306). CDK1 (cyclin dependent kinase 1) is isolated from insect cells expressing both the human CDK1 catalytic subunit and its positive regulatory subunit cyclin B (New England Biolabs, Beverly, Mass., Cat. #6020). CDK4 (cyclin dependent kinase 4) contains amino acids 769 to 921 of the mouse […] protein found in the GST-retinoblastoma protein construct (Santa Cruz Biotechnology, Santa Cruz, Calif.; Cat. #SC-4112). Insulin Receptor Kinase consists of residues 941-1313 of the cytoplasmic domain of the beta-subunit of the human insulin receptor (BIOMOL, Plymouth Meeting, Pa., Cat. #SE-195). Protein Kinase A is the catalytic subunit of cAMP dependent protein kinase-A purified from bovine heart (Upstate Biotech, Lake Placid, N.Y., Cat#14-114). PKC (protein kinase-C) is the gamma or beta isoform of the human protein produced in insect cells (BIOMOL, Plymouth Meeting, Pa., Cat. #SE-143). Casein Kinase 1 is a truncation at amino acid 318 of the C-terminal portion of the rat CK1 delta isoform produced in E.coli (New England Biolabs, Beverly, Mass., Cat. #6030). Casein Kinase 2 includes the alpha and beta subunits of the human CK2 protein produced in E.coli (New England Biolabs, Beverly, Mass., Cat. #6010). Calmodulin Kinase (calmodulin-dependent protein kinase 2) is a truncated version of the alpha subunit of the rat protein produced in insect cells (New England Biolabs, Beverly, Mass., Cat. #6060). Glycogen Synthase Kinase-3 is the beta isoform of the rabbit enzyme produced in E. coli (New England Biolabs, Beverly, Mass., Cat. #6040). MAP Kinase is the rat ERK-2 isoform containing a polyhistidine tag at the N-terminus produced in E. coli. and activated by phosphorylation with MEK1 prior to purification (BIOMOL, Plymouth Meeting, Pa., Cat. #SE-137). EGFR (epidermal growth factor receptor) is purified from human A431 cell membranes (Sigma, St. Louis, Mo., Cat.# E3641). […]

Experiment [2] addresses T2, VEGF-R (vascular endothelial growth factor receptor-2) (Rattus norvegicus, UniProt O08775).
T2 construct: polyhistidine (6xHis) (N)
Description: VEGF-R screening assay (33P FlashPlate kinase assay). Format: biochemical. The procedure:
A kinase reaction mixture was prepared containing 50 mM Tris-HCl pH=8, 10 mM MgCl2, 0.1 mM NAPO4, 1 mM DTT, 10 μM ATP, 0.025 μM biotinylated peptide substrate and 0.8 μCuries per well ^33P-γ-ATP [2000-3000 Ci/mmol]. 70 μl of the kinase reaction mixture was dispensed into the well of a streptavidin coated FlashPlate™ (Cat. # SMP103, NEN, Boston, Mass.). Then 1 μl of test compound stock in 100% DMSO was added to the wells resulting in a final concentration of 1% DMSO in the reaction with a 100 μl final reaction volume. Next, soluble rat tyrosine kinase containing an N-terminal 6×HIS tag was diluted in 50 mM Tris-HCl pH=8.0, 0.1% BSA at a concentration of 5 ng per microliter and 30 μl (150 ng enzyme per test well) was added to each well to initiate the reaction. The reaction was incubated for one hour at 30° C. At the end of the 1-hour incubation, the reaction was terminated by aspirating the reaction mixture from the plate and washing the wells twice with PBS containing 100 mM EDTA. The PLCI biotinylated peptide substrate becomes immobilized on the Flashplate™ and the incorporation of ^33P-γ-ATP was measured by reading the plate on a scintillation counter. Inhibition of the enzymatic activity of the VEGF-R was measured by observing a reduced amount of ^33P-γ-ATP incorporated into the immobilized peptide.
as §1
Assays to test compound inhibition of other kinases were preformed using methods that measure the amount of phosphorylation of a biotinylated peptide substrate. Biotinylated peptide substrates were selected from the literature as appropriate for the enzyme being evaluated. The general procedure used to assay for kinase activity is as follows: A kinase reaction mix was prepared in 50 mM Tris-HCl pH=8, 10 mM MgCl2, 0.1 mM NaVO4, 1 mM DTT, 5-10 μM ATP, 0.25-1 μM biotinylated peptide substrate, 0.2-0.8 μCuries per well ^33P-γ-ATP [2000-3000 Ci/mmol]. Assay conditions vary slightly for each protein kinase, for example, insulin receptor kinase requires 10 mM MnCl2 for activity and Calmodulin-dependent protein kinase requires calmodulin and 2 mM CaCl2. The reaction mixture was dispensed into the wells of a streptavidin coated Flashplate and 1 μl drug stock in 100% DMSO was added to a 100 μl reaction volume resulting in a final concentration of 1% DMSO in the reaction. Enzyme was diluted in 50 mM Tris-HCl pH=8.0, 0.1% BSA and added to each well. The reaction was incubated for one hour at 30° C. in the presence of compound. After one hour the reaction mix was aspirated from the plate and the plate was washed with PBS containing 100 mM EDTA. The plate was read on a scintillation counter to determine ^33P-γ-ATP incorporated into the immobilized peptide. Test compounds were assayed in duplicate at 8 concentrations [100 tM, 10 μM, 1 μM, 100 nM, 10 nM, 1 nM, 100 μM, 10 μM]. A maximum and minimum signal for the assay was determined on each plate. The IC50 was calculated from the dose response curve of the percent inhibition of the maximum signal in the assay according to the formula [max signal−background/test compound signal−background (100)=% inhibition] by graphing the percent inhibition against the log concentration of test compound. Known inhibitor compounds appropriate for the kinase being assayed were also included on each plate.
VEGF-R (vascular endothelial growth factor receptor-2) is a fusion protein containing a polyhistidine tag at the N-terminus followed by amino acids 786-1343 of the rat VEGF-R2 kinase domain (GenBank Accession #U93306). CDK1 (cyclin dependent kinase 1) is isolated from insect cells expressing both the human CDK1 catalytic subunit and its positive regulatory subunit cyclin B (New England Biolabs, Beverly, Mass., Cat. #6020). CDK4 (cyclin dependent kinase 4) contains amino acids 769 to 921 of the mouse […] protein found in the GST-retinoblastoma protein construct (Santa Cruz Biotechnology, Santa Cruz, Calif.; Cat. #SC-4112). […]

Where [3] appears, read: Tables 1-3, >10 or >100 = no 50% inhibition at highest dose tested, read-out: CDK IC50.
The mark [4] stands for this setting: Tables 1-3, >10 or >100 = no 50% inhibition at highest dose tested, read-out: VEGF-R IC50.
The mark [5] stands for this setting: Table 4 kinase selectivity, 10 = approximate value, read-out: IC50, Assay 2 CDK1.
The mark [6] stands for this setting: Table 4 kinase selectivity, read-out: IC50, Assay 1 VEGF-R.

Read-outs that look alike come from different tables or passages of the source.

T2 sequence (O08775 786-1343): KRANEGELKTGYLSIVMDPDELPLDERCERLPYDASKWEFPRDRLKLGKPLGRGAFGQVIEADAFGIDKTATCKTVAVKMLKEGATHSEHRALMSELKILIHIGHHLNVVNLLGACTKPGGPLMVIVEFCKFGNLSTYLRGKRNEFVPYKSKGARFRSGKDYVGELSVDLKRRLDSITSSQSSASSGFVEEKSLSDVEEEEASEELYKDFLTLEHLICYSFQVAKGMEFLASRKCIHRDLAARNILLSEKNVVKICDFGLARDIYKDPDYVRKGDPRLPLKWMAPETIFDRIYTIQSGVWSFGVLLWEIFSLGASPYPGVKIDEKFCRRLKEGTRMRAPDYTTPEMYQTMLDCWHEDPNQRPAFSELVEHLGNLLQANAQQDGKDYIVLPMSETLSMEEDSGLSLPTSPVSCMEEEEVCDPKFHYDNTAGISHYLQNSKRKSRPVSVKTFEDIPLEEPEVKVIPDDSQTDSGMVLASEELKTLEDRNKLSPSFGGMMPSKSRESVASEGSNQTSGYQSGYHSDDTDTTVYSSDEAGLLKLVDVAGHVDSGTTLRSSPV
T1 sequence (P06493 whole entry): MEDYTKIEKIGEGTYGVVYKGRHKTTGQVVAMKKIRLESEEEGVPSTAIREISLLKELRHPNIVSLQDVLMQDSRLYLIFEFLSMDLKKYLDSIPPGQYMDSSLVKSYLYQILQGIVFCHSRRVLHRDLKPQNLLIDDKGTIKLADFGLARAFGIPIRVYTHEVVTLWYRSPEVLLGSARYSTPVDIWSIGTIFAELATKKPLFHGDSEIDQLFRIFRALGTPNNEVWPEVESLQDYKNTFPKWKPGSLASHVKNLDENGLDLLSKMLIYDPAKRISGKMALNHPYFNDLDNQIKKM
T1 sequence (P14635 whole entry partner): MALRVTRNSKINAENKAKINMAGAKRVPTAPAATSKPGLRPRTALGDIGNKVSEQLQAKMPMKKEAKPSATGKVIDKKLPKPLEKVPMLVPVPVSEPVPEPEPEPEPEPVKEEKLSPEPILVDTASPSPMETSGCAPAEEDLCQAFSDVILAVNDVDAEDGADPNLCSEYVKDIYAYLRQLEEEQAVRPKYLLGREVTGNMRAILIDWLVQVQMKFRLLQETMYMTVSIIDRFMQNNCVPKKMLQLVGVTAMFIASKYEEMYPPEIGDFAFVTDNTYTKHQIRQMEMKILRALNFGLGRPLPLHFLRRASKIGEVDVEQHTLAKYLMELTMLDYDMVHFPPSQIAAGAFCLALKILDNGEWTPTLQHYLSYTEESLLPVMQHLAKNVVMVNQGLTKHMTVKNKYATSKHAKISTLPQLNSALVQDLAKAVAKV

Turning to `CCOC(=O)c1cncc(-c2cncc(Nc3cccc(Cl)c3)n2)c1` [Cmd 1], the 50% inhibitory concentration (IC50) in experiment [1] (setting [3]) is more than 10 µM.

For `Nc1cncc(-c2cncc(Nc3cccc(Cl)c3)n2)c1` [Cmd 5], the IC50 is 11.7 µM in experiment [1] (setting [3]) and 1.16 µM in experiment [2] (setting [4]).

`OCCNc1cncc(-c2cncc(Nc3cccc(Cl)c3)n2)c1` [Cmd 31]: the values for the IC50 in experiment [1] (setting [3]) and in experiment [2] (setting [4]) were approximately 10 µM and 0.15 µM, respectively.

In the case of `Clc1cccc(Nc2cncc(-c3cncc(NCCCN4CCOCC4)c3)n2)c1` [Cmd 34], the IC50 in experiment [1] (setting [3]) was more than 100 µM; in experiment [2] (setting [4]) it was 0.18 µM.

On to `COCCNC(=O)c1cncc(-c2cncc(Nc3cccc(Cl)c3)n2)c1` [Cmd 36], for which the IC50 in experiment [1] (setting [3]) is more than 100 µM; in experiment [2] (setting [4]) it was approximately 10 µM.

As for `CN(C)CCCNC(=O)c1cncc(-c2cncc(Nc3cccc(Cl)c3)n2)c1` [Cmd 37], the half-inhibitory concentration (IC50) in experiment [1] (setting [3]) is more than 100 µM; in experiment [2] (setting [4]), 5.5 µM.

Turning to `CN(C)CCNC(=O)c1cncc(-c2cncc(Nc3cccc(Cl)c3)n2)c1` [Cmd 38], the IC50 in experiment [1] (setting [3]) turned out to be 3.69 µM; in experiment [2] (setting [4]), 4.3 µM.

As for `CCOCCCNC(=O)c1cncc(-c2cncc(Nc3cccc(Cl)c3)n2)c1` [Cmd 40], the concentration for half-maximal inhibition (IC50) in experiment [1] (setting [3]) and in experiment [2] (setting [4]) was more than 100 µM in each case.

With `COCC(=O)Nc1cncc(-c2cncc(Nc3cccc(Cl)c3)n2)c1` [Cmd 41], the figures for the IC50 in experiment [1] (setting [3]) and in experiment [2] (setting [4]) were more than 100 µM and 0.36 µM, respectively.

In the case of `CN(C)c1ccc(C(=O)Nc2cncc(-c3cncc(Nc4cccc(Cl)c4)n3)c2)cc1` [Cmd 42], the IC50 in experiment [1] (setting [3]) and in experiment [2] (setting [4]) was more than 100 µM in each case.

Consider `O=C(Nc1cncc(-c2cncc(Nc3cccc(Cl)c3)n2)c1)c1cccnc1` [Cmd 43], for which the IC50 in experiment [1] (setting [3]) is more than 100 µM; in experiment [2] (setting [4]), 1.12 µM.

Take `OCCCNc1cncc(-c2cncc(Nc3cccc(F)c3)n2)c1` [Cmd 52]: the concentration for half-maximal inhibition (IC50) in experiment [1] (setting [3]) was approximately 100 µM; in experiment [2] (setting [4]), 0.17 µM.

For `COc1cccc(Nc2cncc(-c3cncc(NCCCO)c3)n2)c1` [Cmd 57], the IC50 in experiment [1] (setting [3]) was determined as 81.4 µM; in experiment [2] (setting [4]) it was 0.81 µM.

Regarding `OCCCNc1cncc(-c2cncc(NCc3ccccc3)n2)c1` [Cmd 62], the values for the IC50 in experiment [1] (setting [3]) and in experiment [2] (setting [4]) were 34.4 µM and 1.05 µM, respectively.

For the compound `Clc1cccc(Nc2cncc(-c3cncc(NCCCN4CCNCC4)c3)n2)c1` [Cmd 69], the IC50 in experiment [1] (setting [3]) is more than 10 µM; in experiment [2] (setting [4]), 0.364 µM.

Take `Clc1cccc(Nc2cncc(-c3cncc(NCCCCc4ccncc4)c3)n2)c1` [Cmd 70]: in experiment [2] (setting [4]), the IC50 is 0.295 µM.

Regarding `O=C(Nc1cncc(-c2cncc(Nc3cccc(Cl)c3)n2)c1)N1CCCC1` [Cmd 74], the IC50 was more than 10 µM in experiment [1] (setting [3]) and 0.578 µM in experiment [2] (setting [4]).

As for `OCCOCCOCCNc1cncc(-c2cncc(Nc3cccc(Cl)c3)n2)c1` [Cmd 78], the IC50 in experiment [1] (setting [3]) was more than 10 µM; in experiment [2] (setting [4]), 0.282 µM.

Consider `Clc1cccc(Nc2cncc(-c3cncc(NCCCc4ccccc4)c3)n2)c1` [Cmd 80], for which the IC50 in experiment [1] (setting [3]) is more than 10 µM; in experiment [2] (setting [4]), 2.28 µM.

Consider `CCN(CC)C(=O)CNc1cncc(-c2cncc(Nc3cccc(Cl)c3)n2)c1` [Cmd 81], for which the IC50 was more than 10 µM in experiment [1] (setting [3]) and 1.1 µM in experiment [2] (setting [4]).

`Clc1cccc(Nc2cncc(-c3cncc(NCc4ccccc4)c3)n2)c1` [Cmd 82]: the IC50 was more than 10 µM in experiment [1] (setting [3]) and 4.3 µM in experiment [2] (setting [4]).

For `Clc1cccc(Nc2cncc(-c3cncc(NCCOc4ccccc4)c3)n2)c1` [Cmd 83], the IC50 in experiment [1] (setting [3]) and in experiment [2] (setting [4]) was more than 10 µM in each case.

As for `CCOC(=O)CCCNc1cncc(-c2cncc(Nc3cccc(Cl)c3)n2)c1` [Cmd 84], the IC50 was 2.03 µM in experiment [1] (setting [5]), 2.03 µM in experiment [1] (setting [3]), 0.125 µM in experiment [2] (setting [6]) and 0.125 µM in experiment [2] (setting [4]).

For `COCCOCCNc1cncc(-c2cncc(Nc3cccc(Cl)c3)n2)c1` [Cmd 85], the IC50 in experiment [1] (setting [5]) was more than 10 µM; in experiment [1] (setting [3]), more than 10 µM; in experiment [2] (setting [6]), 0.085 µM; in experiment [2] (setting [4]), 0.085 µM.

Take `Clc1cccc(Nc2cncc(-c3cncc(NCCCN4CCN(c5cccc(Cl)c5)CC4)c3)n2)c1` [Cmd 86]: the IC50 in experiment [1] (setting [3]) and in experiment [2] (setting [4]) was more than 10 µM each time.

With `Clc1ccc(Nc2cncc(-c3cncc(NCCCc4ccncc4)c3)n2)cc1` [Cmd 87], the IC50 in experiment [1] (setting [3]) is more than 10 µM; in experiment [2] (setting [4]) it was 1 µM.

With `COc1ccc(Nc2cncc(-c3cncc(NCCCc4ccncc4)c3)n2)cc1` [Cmd 88], the IC50 is more than 10 µM in experiment [1] (setting [3]) and 0.154 µM in experiment [2] (setting [4]).

For `Clc1ccc(Nc2cncc(-c3cncc(NCCCc4ccncc4)c3)n2)cc1Cl` [Cmd 89], the values for the IC50 in experiment [1] (setting [3]) and in experiment [2] (setting [4]) were more than 10 µM and 0.268 µM, respectively.

The values above are taken from patent publication US6710048B2, “Pyrazine derivatives as modulators of tyrosine kinases” (Ortho-McNeil Pharmaceutical, Inc., priority 2000, dated 2004).
